Measurements from patent US20040122209A1, “Products for regulating the degradation of collagen and methods for identifying same” (Shriners Hospital For Children, priority 2002, published 2004).

Columns and labels:
[1] = tested on: ERK1/2; assay: Western immunoblot for phosphorylated ERK1/2 in human chondrocytes; type: cell-based
Procedure: To detect activation of MAP kinases (ERK1/2, p38 MAPK, and JNK1/2), first-passaged chondrocytes plated onto 10-cm culture dishes were incubated with CB12-II (SP), USP, TNF-α, native human type II collagen, human fibronectin, and antibodies to α2β1 and α5β1 for 5-60 min. In some experiments, chondrocytes were precultured with U0126 (inhibitor of phosphorylation of MEK1/2, up-stream kinase molecule of ERK1/2) at 1 μM for 1 h, SB203580 (inhibitor of phosphorylation of p38 MAPK) at 1 μM for 1 h, Herbimycin A (tyrosine kinase inhibitor) at 1 μg/ml for overnight, Wortmannin (PI3 kinase inhibitor) at 100 nM for 1 h, and Cytochalasin D (focal adhesion inhibitor) at 3 μM for 30 or 60 min before adding peptides.
After a variable but designated incubation time, chondrocytes were washed twice with ice cold PBS and lysed in RIPA buffer (10 mM Tris/HCl, pH 7.4, 0.1% SDS, 1% NP-40, 0.1% sodium deoxycholate, 150 mM NaCl, 1 mM EDTA) containing freshly added proteinase and phosphatase inhibitors (1 mM PMSF, 10 μg/ml leupeptin, 1 μg/ml aprotinin, 1 mM Na3VO4, 1 mM NaF). Cell lysate was centrifuged and supernatant was collected. Protein concentration was determined using Bradford's method. Equal amounts of protein were separated on 10% SDS-polyacrylamide gels under reducing conditions and were electrotransferred to a nitrocellulose membrane (Bio-Rad). To block nonspecific binding, the membranes were incubated in PBS containing 5% non-fat milk overnight at 4° C. The membranes were then probed with rabbit antibodies against phosphorylated ERK1/2, p38, and JNK1/2 (New England BioLabs). Antibodies were diluted 1:1000 in PBS containing 0.5% non-fat milk and reacted with the membrane for 1 h at room temperature. Blots were washed with PBS containing 0.1% Tween-20 three times, and incubated for 1 h at room temperature with horseradish peroxidase (HRP)-conjugated goat anti-rabbit IgG (New England BioLabs) diluted 1:2000 with PBS-0.1% Tween 20 for ECL system (Amersham). Then, the membranes were washed with PBS-Tween, and the membranes were detected with the addition of a 1:1 dilution of the ECL detection reagents (Amersham) 1 and 2 for 1 min. The solution was removed, and the membranes were wrapped in plastic wrap and exposed to film for various amounts of time.
First-passaged confluent human chondrocytes were treated with CB12-II (SP) (10 μM), USP (10 μM), anti-α2β1and α5β1 antibodies, anti-integrin α2β1 blocking antibody, and IL-1β or TNF-α. Cell lysates were immunoblotted using antibody that detects phosphorylated p-ERK1I/2 or p-MEK. In some experiments, U0126 at 10 μM, a specific inhibitor of an upstream molecule, MEK1/2, that activates ERK1/2, and SB203580 at 10 μM, that inhibits p38 MAPK activity, were added to the culture 1 h before peptides, antibodies, and cytokines. Herbimycin A, cytochalasin D, and wortmannin were also used as inhibitors.

[2] = tested on: adult human articular cartilage; assay: RT-PCR of hypertrophy and degradation genes in human articular cartilage explant culture; type: cell-based
Procedure: Total RNA was isolated from chondrocytes or cartilage explants by the guanidine isothiocyanate procedure according to Chomczynski and Sacchi (Chomczynski, P. et al., Anal. Biochem. 162:156-9 (1987)) with some modifications. Briefly, chondrocytes (1-2×10^6 cells) or cartilage tissue (200-300 mg) were solubilized in solution D (4 M guanidine isothiocyanate, 20 mM sodium acetate/pH 5.2, 0.1 M 2-mercaptoethanol and 0.5% N-lauroylsarcosine). One volume of isopropanol was added to the mixture and all proteins and nucleic acids were precipitated at −20° C. overnight. […] The total RNA pellet was resuspended in diethyl pyrocarbonate-treated (DEPC) water and the amount of total RNA was measured by reading optical density at 260 nm. […]
One microliter of reverse transcribed total RNA was incubated with 2.5 U of AmpliTaq™ DNA polymerase (Perkin Elmer, Branchburg, N.J.) in 50 mM KCl, 1.5 mM MgCl2, 10 mM Tris-HCl, pH 8.3, 200 μM dNTP mix and 0.5 μmol each of oligonucleotide primers in 50 μl reaction mixture. […] The digital images of the gel were analyzed using NIH 1.60 imaging software to evaluate the pixel intensity of the band of the PCR products. […] The band intensities were determined to be below saturation. […]
MMP-13 expression was maximal by 12 days. Gene expression was determined by RT-PCR analyses of mRNA in the manner used to detect expression of MMPs and cytokines described elsewhere. […]

Sequence: ERGPPGPQGARGFPGTPGLPGVK [CB12-II]
- phosphorylation of ERK1/2 compared with USP at the same concentration ([1]; 10 μM): more than USP
- time of maximum ERK1/2 phosphorylation ([1]; 10 μM): 15 to 30 min
- time to phosphorylation of ERK1/2 after adding peptide ([1]; 10 μM): ≤ 5 min
- phosphorylation of ERK 1/2, dose dependence ([1]; 1, 10 and 50 μM, 15 min after addition): dose-dependently
- time at which MMP-13 expression was maximal [2]: ≤ 12 days
- expression of genes characteristic of chondrocyte hypertrophy (COLX, MMP-9, TGF-B1, IHH, MMP-13, CBFA1, SOX 9, bFGF, pTHrP, caspase-3, MT1-MMP, IL-1B, MMP-1) ([2]; induction within a 24-48 hr period): rapid induction
